Reference: patent publication US20200390128A1 (Lennham Pharmaceuticals, Inc., priority 2019, published 2020)
Like-named read-outs stand apart in the source and are kept apart here.

Key:
[1] = Brain concentrations and brain pharmacokinetics after a single oral (gavage) dose in fasted male Sprague-Dawley rats, LC-MS/MS; assay type: in vivo; conditions: for measurable brain concentrations: after 2 mg/kg oral; for concentration at 1 h: 1 hour post dose; for concentration at 4 h: 4 hour post dose; for concentration at 14 h: 14 hour post dose
Protocol: Water was provided ad libitum.
Immediately after the 1, 4, 8 and 14-hour blood collections, three animals/group were euthanized and the brain was dissected out of each rat. The brains were rinsed with saline and dried, placed in pre-weighed conical tubes, and flash frozen in liquid nitrogen. Brain weights were calculated for each sample.

in vivo = conditions: male, Sprague-Dawley, rat, plasma, po, 2 mg/kg
Protocol: (§1) Serial blood samples were collected from three animals per group per timepoint prior to dosing and at 0.25, 0.5, 1, 2, 3 4, 6, 8, 10, 12, and 14-hours post dose.
(§2) Animals were fasted overnight prior to dose administration. Water was provided ad libitum. Food was returned after the collection of the 4-hour samples.
(§3) Doses (rounded to the nearest 0.001 mL) were calculated based on the pretreatment body weight (kg) and a dose volume of 10 mL/kg.
(§4) Serial blood samples (˜300 μL) were collected from three animals per group per timepoint into tubes containing sodium heparin prior to dosing and at 0.25, 0.5, 1, 2, 3, 4, 6, 8, 10, 12, and 14-hours post dose. […] Blood samples were stored on wet ice until being processed for plasma via centrifugation (3500 g for 10 minutes at 5° C.) within 30 minutes of collection.
(§5) The concentration-time data were analyzed to fit an extra-vascular (oral gavage) dosing plasma analysis model (200) using the software WinNonlin Phoenix version 6.3 (Pharsight).
(§6) Half-lives are reported if the correlation for the regression line, as measured by r squared, is ≥0.9, when rounded.

[2] = Plasma pharmacokinetics after a single oral (gavage) dose in fasted male Sprague-Dawley rats, LC-MS/MS; conditions: for Concentration in plasma, Mean: fasted male Sprague-Dawley rats, n = 3/time point; for measurable plasma concentrations: after 2 mg/kg oral; for AUClast / T 1/2 (terminal half life): fasted male Sprague Dawley rats;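 for all read-outs here: plasma from heparinized blood sampled up to 14 h post dose, three rats per timepoint, parameters by non-compartmental analysis of mean concentration-time data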
Protocol: as §1, §2, §3, §4, §5, §6

[3] = male, Sprague-Dawley, rat, brain, po, 2 mg/kg, oral gavage 2 mg/kg, fasted male Sprague-Dawley rats, n = 3/time point
[4] = male, Sprague-Dawley, rat, brain, po, 2 mg/kg, brain, molecular weight corrected (caffeine values multiplied by 0.956), oral gavage 2 mg/kg, rats, read-out: AUClast,corr
[5] = male, Sprague-Dawley, rat, brain, po, 2 mg/kg, brain, molecular weight corrected (caffeine values multiplied by 0.956), oral gavage 2 mg/kg, rats, read-out: Cmax,corr
[6] = male, Sprague-Dawley, rat, brain, po, 2 mg/kg, brain, oral gavage 2 mg/kg, fasted male Sprague Dawley rats, read-out: AUClast
[7] = male, Sprague-Dawley, rat, brain, po, 2 mg/kg, brain, oral gavage 2 mg/kg, fasted male Sprague Dawley rats, read-out: Cmax
[8] = male, Sprague-Dawley, rat, brain, po, 2 mg/kg, oral dose 2 mg/kg, rats, read-out: AUClast in brain
[9] = rat, brain/plasma, oral gavage 2 mg/kg, fasted male Sprague Dawley rats, read-out: Ratio Brain/Plasma Cmax
[10] = rat, brain, oral gavage 2 mg/kg, fasted male Sprague Dawley rats
[11] = rat, brain, oral gavage 2 mg/kg, fasted male Sprague Dawley rats, read-out: Ratio Brain/Plasma AUClast
[12] = plasma, molecular weight corrected (caffeine values multiplied by 0.956), oral gavage 2 mg/kg, rats
[13] = in words, molecular weight corrected, oral 2 mg/kg, rats

| Structure (SMILES) | measurable brain concentrations ([1]; in words, rats) | concentration at 1 h [1, 3] | concentration at 4 h [1, 3] | concentration at 14 h [1, 3] | AUC(0-t) [1, 4] | Cmax [1, 5] | AUC(0-t) [1, 6] | Cmax [1, 7] | AUC(0-t) [1, 8] | Kp [1, 9] | Tmax [1, 10] | Kp [1, 11] | AUC(0-inf) (in vivo) | AUC(0-t) (in vivo) | Cmax (in vivo) | Tmax (in vivo) | concentration at 0.25 h (in vivo) | concentration at 0.5 h (in vivo) | concentration at 1 h (in vivo) | concentration at 2 h (in vivo) | further results |
| --- | --- | --- | --- | --- | --- | --- | --- | --- | --- | --- | --- | --- | --- | --- | --- | --- | --- | --- | --- | --- | --- |
| Cn1c(=O)c2c(ncn2C)n(C)c1=O [Caffeine, reference compound] | detected in all animals evaluated at each time point through 14 hours post dose | 1910 ng/g | 1210 ng/g | 62.6 ng/g | 10500 ng·h/mL | 1820 ng/mL | 11000 ng·h/mL | 1900 ng/mL | 11000 ng·h/mL | 0.73 | 1 h | 0.69 | 16000 ng·h/mL | 16000 ng·h/mL | 2600 ng/mL | 1 h | 2420 ng/mL | 2410 ng/mL | 2640 ng/mL | 2070 ng/mL | concentration at 8 h ([1]; male, Sprague-Dawley, rat, brain, po, 2 mg/kg, 8 hour post dose, oral gavage 2 mg/kg, fasted male Sprague-Dawley rats, n = 3/time point): 553 ng/g; AUC(0-inf) [1, 10]: 11000 ng·h/mL; concentration at 3 h (in vivo): 2030 ng/mL; concentration at 4 h (in vivo): 1820 ng/mL; half-life (in vivo): 1.9 h; Concentration in plasma, Mean ([2]; 8 hour post dose, oral gavage 2 mg/kg): 849 ng/mL; Concentration in plasma, Mean ([2]; 10 hour post dose, oral gavage 2 mg/kg): 344 ng/mL; Concentration in plasma, Mean ([2]; 12 hour post dose, oral gavage 2 mg/kg): 171 ng/mL; Concentration in plasma, Mean ([2]; 14 hour post dose, oral gavage 2 mg/kg): 97.1 ng/mL; measurable plasma concentrations ([2]; in words, rats): detected in all animals evaluated at each time point through 14 hours post dose; AUCinf, corr [2, 12]: 15296 ng·h/mL; AUClast, corr [2, 12]: 15296 ng·h/mL; AUClast ([2]; plasma, oral gavage 2 mg/kg): 16000 ng·h/mL; T 1/2 (terminal half life) ([2]; plasma, oral gavage 2 mg/kg): 1.9 h |
| [2H]C([2H])([2H])n1c(=O)c2c(ncn2C([2H])([2H])[2H])n(C([2H])([2H])[2H])c1=O [Compound D9-Caffeine, D9-caffeine] | detected in all animals evaluated at each time point through 14 hours post dose | 1540 ng/g | 1640 ng/g | 463 ng/g | 16000 ng·h/mL | 1600 ng/mL | 16000 ng·h/mL | 1600 ng/mL | 16000 ng·h/mL | 0.67 | 4 h | 0.73 | 27000 ng·h/mL | 22000 ng·h/mL | 2400 ng/mL | 3 h | 1720 ng/mL | 1740 ng/mL | 2090 ng/mL | 2340 ng/mL | total brain exposure (AUClast,corr) higher than caffeine ([1]; brain, molecular weight corrected, oral 2 mg/kg, rats): approximately 52%; brain Cmax compared with caffeine [1, 13]: slightly lower; AUC exposure in brain compared with a corresponding dose of caffeine ([1]; in words, oral 2 mg/kg, rats): higher; concentration at 3 h (in vivo): 2360 ng/mL; concentration at 4 h (in vivo): 2270 ng/mL; concentration at 6 h (in vivo): 1790 ng/mL; concentration at 8 h (in vivo): 1550 ng/mL; concentration at 12 h (in vivo): 897 ng/mL; concentration at 14 h (in vivo): 682 ng/mL; half-life (in vivo): 5 h; measurable plasma concentrations ([2]; in words, rats): detected in all animals evaluated at each time point through 14 hours post dose; plasma Cmax compared with caffeine [2, 13]: similar; systemic (AUC) exposure in plasma compared with a corresponding dose of caffeine ([2]; in words, oral 2 mg/kg, rats): higher; half-life compared with a corresponding dose of caffeine ([2]; in words, plasma, oral 2 mg/kg, rats): longer; AUCinf, corr [2, 12]: 27000 ng·h/mL; AUClast, corr [2, 12]: 22000 ng·h/mL; Cmax, corr [2, 12]: 2400 ng/mL; total systemic exposure (AUCinf) higher than caffeine ([2]; plasma, molecular weight corrected, oral 2 mg/kg, rats): approximately 77%; AUClast ([2]; plasma, oral gavage 2 mg/kg): 22000 ng·h/mL; T 1/2 (terminal half life) ([2]; plasma, oral gavage 2 mg/kg): 5 h |
